US20180303824A1, “Compositions for deterring abuse of pharmaceutical products and alcohol” (priority 2015, published 2018)
Counter-ions that a name gives are not always drawn.

Tests used:
[1] = Electrical conductivity of clay dispersions and drug solutions; format: physicochemical; settings: for Conductivity, Mean / Conductivity, Trial 1 / Conductivity, Trial 2 / Conductivity, Trial 3 / pH, Mean / pH, Trial 1 / pH, Trial 2 / pH, Trial 3: dispersions
[2] = pH 3
Protocol: (§1) Into 10 mL of drug solution (containing 25 mg of tramadol HCl), 50 mg of talc was added and vortexed for 5 seconds followed by centrifugation @1500 rpm for 5 minutes. The solution was filtered through a 0.2 μm syringe filter; 0.5 ml of the supernatant solution was diluted with 10 ml of solvent, and then analyzed for drug concentration by UV spectroscopy @271 nm.
as §1, with “zinc acetate” for “talc”
The solution was filtered through a 0.2 μm syringe filter; 0.5 ml of the supernatant solution was diluted with 10 ml of solvent, and then analyzed for drug concentration by UV spectroscopy @271 nm.

SMILES	Conductivity, Mean [1]	Conductivity, Trial 1 [1]	Conductivity, Trial 2 [1]	Conductivity, Trial 3 [1]	pH, Mean [1]	pH, Trial 1 [1]	pH, Trial 2 [1]	pH, Trial 3 [1]	% Bound [2]	Cond. ([1]; drug solution in 0.1N HCl, 100 μg/mL)	Cond. ([1]; drug solution in 0.1N HCl, 200 μg/mL)	Cond. ([1]; drug solution in 0.1N HCl, 250 μg/mL)	Cond. ([1]; drug solution in 0.1N HCl, 500 μg/mL)	Cond. ([1]; drug solution in 0.1N HCl, 1000 μg/mL)	Cond. ([1]; drug solution in ultrapure deionized water, 100 μg/mL)	Cond. ([1]; drug solution in ultrapure deionized water, 200 μg/mL)	Cond. ([1]; drug solution in ultrapure deionized water, 250 μg/mL)	Cond. ([1]; drug solution in ultrapure deionized water, 500 μg/mL)	Cond. ([1]; drug solution in ultrapure deionized water, 1000 μg/mL)
O=C([O-])[O-].[Na+].[Na+] [Na2CO3]	−247.7 mV	−247.4 mV	−248.3 mV	−247.5 mV	11.40	11.40	11.42	11.40											
[Cl-].[Na+] [NaCl]	40.3 mV	34.7 mV	33.6 mV	52.6 mV	6.38	6.48	6.50	6.16											
CC(=O)[O-].CC(=O)[O-].[Zn+2] [Zinc Acetate]									2.9%										
CN(C)CCOC(c1ccccc1)c1ccccc1 [diphenhydramine HCl]										334.4 mV	333.5 mV	333.2 mV	333.7 mV	332.1 mV	28.2 mV	24.5 mV	21.3 mV	21.3 mV	31.3 mV
